Source: US7141595B2, “Amino benzothiazole compounds with NOS inhibitory activity” (Neuraxon Inc., priority 2002, dated 2006)
Where a name gives a salt, the structure may show the parent alone.

Legend:
iNOS = biological target: T1, iNOS (UniProt P29477); test: iNOS enzyme assay (hemoglobin capture assay); format: biochemical; details: initial velocity, read-out: IC50 of NOS, iNOS
T1 sequence (P29477 1-1144): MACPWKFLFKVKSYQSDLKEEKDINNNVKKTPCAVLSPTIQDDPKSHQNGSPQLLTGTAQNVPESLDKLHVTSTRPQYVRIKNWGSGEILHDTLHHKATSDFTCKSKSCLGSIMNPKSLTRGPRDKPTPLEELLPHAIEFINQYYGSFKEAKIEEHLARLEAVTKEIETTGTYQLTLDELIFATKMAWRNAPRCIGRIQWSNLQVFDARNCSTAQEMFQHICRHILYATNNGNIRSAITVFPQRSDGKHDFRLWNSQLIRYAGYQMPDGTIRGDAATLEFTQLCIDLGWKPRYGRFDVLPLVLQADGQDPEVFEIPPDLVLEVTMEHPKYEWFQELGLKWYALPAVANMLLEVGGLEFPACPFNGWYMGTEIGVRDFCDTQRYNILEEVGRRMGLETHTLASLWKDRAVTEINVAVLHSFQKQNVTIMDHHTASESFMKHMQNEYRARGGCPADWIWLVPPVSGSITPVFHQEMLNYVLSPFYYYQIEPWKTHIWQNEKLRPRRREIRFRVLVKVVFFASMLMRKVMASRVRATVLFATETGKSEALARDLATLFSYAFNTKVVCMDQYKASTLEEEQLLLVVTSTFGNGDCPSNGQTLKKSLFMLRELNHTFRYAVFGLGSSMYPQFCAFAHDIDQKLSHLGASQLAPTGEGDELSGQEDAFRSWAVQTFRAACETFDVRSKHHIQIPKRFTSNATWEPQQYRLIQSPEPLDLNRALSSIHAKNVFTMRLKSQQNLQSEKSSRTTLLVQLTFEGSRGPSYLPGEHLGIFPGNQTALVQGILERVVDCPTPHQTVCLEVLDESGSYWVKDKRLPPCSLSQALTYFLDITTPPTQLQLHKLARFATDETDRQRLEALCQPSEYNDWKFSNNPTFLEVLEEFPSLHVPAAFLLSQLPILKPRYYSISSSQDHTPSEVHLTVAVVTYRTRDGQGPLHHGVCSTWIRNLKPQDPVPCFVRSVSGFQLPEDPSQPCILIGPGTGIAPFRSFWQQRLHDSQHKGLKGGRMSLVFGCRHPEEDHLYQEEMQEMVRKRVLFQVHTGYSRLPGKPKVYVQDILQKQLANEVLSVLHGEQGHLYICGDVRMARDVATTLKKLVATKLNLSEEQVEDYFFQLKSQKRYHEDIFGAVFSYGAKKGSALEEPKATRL
Experimental: (§1) The reaction mixture for iNOS contained 10 mM of L-arginine, […], 6.5 mM BH4 and 3 mM oxyhemoglobin in 100 mM Hepes (pH 7.5). All assays were in a final volume of […] and were initiated with enzyme.
(§2) IC50 and percent inhibition of NOS by the compounds of the invention were determined under initial velocity measurement condition with hemoglobin capture assay as described above using varying concentrations of the compounds of the invention.

eNOS = biological target: T2, eNOS (UniProt P29473); test: eNOS enzyme assay (hemoglobin capture assay); format: biochemical; details: initial velocity, read-out: IC50 of NOS, eNOS
T2 sequence (P29473 1-1205): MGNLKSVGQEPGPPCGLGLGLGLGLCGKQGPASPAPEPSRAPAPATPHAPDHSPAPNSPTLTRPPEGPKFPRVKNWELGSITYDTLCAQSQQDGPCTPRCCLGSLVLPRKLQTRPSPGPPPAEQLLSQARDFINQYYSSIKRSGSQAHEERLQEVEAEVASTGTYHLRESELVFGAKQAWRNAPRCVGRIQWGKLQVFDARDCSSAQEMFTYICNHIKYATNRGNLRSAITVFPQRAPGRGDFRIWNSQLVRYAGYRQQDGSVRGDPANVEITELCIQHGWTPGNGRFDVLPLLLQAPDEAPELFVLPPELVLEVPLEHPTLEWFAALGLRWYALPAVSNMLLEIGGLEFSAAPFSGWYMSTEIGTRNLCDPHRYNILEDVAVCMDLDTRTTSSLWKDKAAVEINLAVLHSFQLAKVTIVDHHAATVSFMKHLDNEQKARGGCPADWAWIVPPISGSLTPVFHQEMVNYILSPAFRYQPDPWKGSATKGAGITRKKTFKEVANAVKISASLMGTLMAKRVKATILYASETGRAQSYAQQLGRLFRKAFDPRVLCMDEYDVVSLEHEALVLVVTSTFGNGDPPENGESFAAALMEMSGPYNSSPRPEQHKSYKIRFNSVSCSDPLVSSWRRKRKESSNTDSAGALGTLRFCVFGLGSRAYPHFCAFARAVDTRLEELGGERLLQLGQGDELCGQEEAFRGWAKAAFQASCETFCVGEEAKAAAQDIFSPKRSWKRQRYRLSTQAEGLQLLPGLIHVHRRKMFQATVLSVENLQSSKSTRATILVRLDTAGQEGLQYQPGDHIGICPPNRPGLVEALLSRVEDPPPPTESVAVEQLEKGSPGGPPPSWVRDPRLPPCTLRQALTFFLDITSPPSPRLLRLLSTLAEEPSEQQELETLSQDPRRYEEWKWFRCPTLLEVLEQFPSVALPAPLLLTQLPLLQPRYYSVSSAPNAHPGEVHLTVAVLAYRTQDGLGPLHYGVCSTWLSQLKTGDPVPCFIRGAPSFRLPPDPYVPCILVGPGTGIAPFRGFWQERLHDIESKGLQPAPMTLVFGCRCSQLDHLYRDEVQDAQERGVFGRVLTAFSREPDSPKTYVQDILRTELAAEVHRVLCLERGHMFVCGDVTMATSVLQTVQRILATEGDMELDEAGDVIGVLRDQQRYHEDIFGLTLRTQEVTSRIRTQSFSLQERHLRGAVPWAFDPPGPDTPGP
Experimental: The generation of nitric oxide by NOS was measured using the hemoglobin capture assay (Proc. Natl. Acad. Sci., U.S.A. 1990, 87, 714; Huang et al. J. Med. Chem. 2000, 43, 2938). An assay mixture for nNOS contained 10 mM L-arginine, 1.6 mM CaCl2, […] calmoduline, […], 6.5 mM BH4 and 3 mM oxyhemoglobin in 100 mM Hepes (pH 7.5). The reaction mixture for iNOS contained 10 mM of L-arginine, […], 6.5 mM BH4 and 3 mM oxyhemoglobin in 100 mM Hepes (pH 7.5). All assays were in a final volume of […] and were initiated with enzyme. Nitric oxide reacts with oxyhemoglobin to yield methehemoglobin which is detected at 401 nm (ε=19,700 M^−1cm^−1) on a Perkin-Elmer Lamda 10 UV/vis spectrophotometer.
as §2

nNOS = nNOS (UniProt P29476); test: nNOS enzyme assay (hemoglobin capture assay); format: biochemical; details: initial velocity, read-out: IC50 of NOS, nNOS
Experimental: as §1, §2

[1] = test system: Rat cortical neuronal cultures; test: Neuroprotection of rat cortical cells against NMDA challenge; format: cell-based; details: 25 μM NMDA 30 minutes; 60-minute pre-incubation; % cell death by propidium iodide after 24 hrs
Experimental: Rat cortical neuronal cultures were exposed for 30 minutes to 25 μM NMDA in buffer with or without the test compounds according to previously reported procedures (J. Neurosci. 2000 October 1; 20(19):7183–92). Test compounds were added for a 60-minute pre-incubation period in order to maximize the chance of seeing neuroprotection. After 24 hrs cultures were treated with propidium iodide and the % cell death determined.

Compound	IC50 (iNOS) [µM]	IC50 (eNOS) [µM]	IC50 (nNOS) [µM]	neuroprotection during NMDA challenge [1]
CSC(=N)Nc1ccc2nc(N)sc2c1 [Example 4, N-(2-Amino-benzothiazol-6-yl)-2-methylthiocarboximidamide]	327	83.3	4.2	–
N=C(Nc1ccc2nc(N)sc2c1)c1cccs1 [Example 9, N-(2-Amino-benzothiazol-6-yl)-2-thiophenecarboximidamide]	–	119	–	–
N=C(Nc1ccc2nc(NCCN3CCCC3)sc2c1)c1cccs1 [Example 13, N-[2-(2-pyrrolidin-1-ylethylamino)-benzothiazol-6-yl]-2-thiophenecarboximidamide]	125	100	11.9	–
Nc1nc2cc(NC(=S)NC(=O)c3ccccc3)ccc2s1 [Example 17, 1-(2-Amino-benzothiazol-5-yl)-3-benzoyl-thiourea]	275	94	32.1	–
NC(=S)Nc1ccc2sc(N)nc2c1 [Example 18, (2-Amino-benzothiazol-5-yl)-thiourea]	123	145	57.8	–
N=C(Nc1ccc2sc(N)nc2c1)c1cccs1 [Example 20, N-(2-Amino-benzothiazol-5-yl)-thiophene-2-carboxamidine hydrobromide]	73	169	–	–
N=C(Nc1ccc2nc(NCCc3cnc[nH]3)sc2c1)c1cccs1 [Example 36(e), N-{2-[2-(3H-Imidazol-4-yl)-ethylamino]-benzothiazol-6-yl}-thiophene-2-carboxamidine]	–	–	–	neuroprotection observed

Second part, led by results:

IC50 (iNOS) [µM]	IC50 (eNOS) [µM]	IC50 (nNOS) [µM]	Compound	neuroprotection during NMDA challenge [1]
91	110	1.46	N=C(Nc1ccc2nc(NCCc3ccc(Br)cc3)sc2c1)c1cccs1 [Example 36b, N-{2-[2-(4-Bromo-phenyl)-ethylamino]-benzothiazol-6-yl}-thiophene-2-carboxamidine]	–
163	210	1.6	N=C(Nc1ccc2nc(NC3CCN(Cc4ccccc4)CC3)sc2c1)c1cccs1 [Example 36d, N-[2-(1-Benzyl-piperidin-4-ylamino)-benzothiazol-6-yl]-thiophene-2-carboxamidine]	–
> 300	> 300	–	N=C(Nc1ccc2nc(NCCN3CCOCC3)sc2c1)c1cccs1 [Example 36f, N-[2-(2-Morpholin-4-yl-ethylamino)-benzothiazol-6-yl]-thiophene-2-carboxamidine]	neuroprotection observed
